Experimental findings from PubChem BioAssay (NCI) are described below.

Values joined by “and” are separate entries in the source; they are usually repeats but may differ in a detail not shown here. Equal values may be shown once.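 48-hour exposure; five concentrations; linearly interpolated endpoints. GI50 = concentration required for 50% inhibition of growth. The concentration for full growth arrest is given as TGI.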 Some results are limits rather than exact numbers.

Test systems include HCT-116 colon; MDA-MB-435; SF-268 CNS; SK-MEL-2 melanoma; SK-MEL-5 melanoma; SR leukemia; UO-31 renal; IGROV1 ovarian.
Common to all, as to assay: NCI anticancer screen, dose series, 48 h

With `Nc1c(C(=O)Nc2cccc(C(F)(F)F)c2)sc2nc3c(cc12)CCCCCC3`, the GI50 in the assay with HCT-116 colon is 1.69 µM; with MDA-MB-435 it was 2.1 µM; with SF-268 CNS, 2.36 µM; in the assay on SK-MEL-2 melanoma, 4.35 µM; in the assay with SK-MEL-5 melanoma it was 2.15 µM; in the assay with SR leukemia, 3.77 µM. Besides, in the assay on UO-31 renal, the GI50 is 2.18 µM. Besides, the TGI with HCT-116 colon came to 4.34 µM; in the assay on MDA-MB-435 it was 13.9 µM; in the assay on SF-268 CNS it was 6.77 µM; in the assay with SK-MEL-2 melanoma, 18.2 µM; in the assay on SK-MEL-5 melanoma, 15 µM; in the assay with SR leukemia, 19 µM. In the assay on UO-31 renal, this compound gave a TGI of 8.57 µM.

Turning to `O=C1OCC2=C1C(c1cccc(Cl)c1)c1cc3c(cc1N2CCO)CCC3` (stereo not drawn), the GI50 with HCT-116 colon was 0.0447 µM; in the assay with IGROV1 ovarian, 0.121 µM; with MDA-MB-435, 0.02 µM; in the assay on SF-268 CNS, 0.0653 µM; in the assay on SK-MEL-2 melanoma it was 0.0323 µM; in the assay with SK-MEL-5 melanoma, 0.0291 µM. Further, the GI50 in the assay on SR leukemia was 0.0609 µM; with UO-31 renal, 0.0515 µM. Further, the TGI came out at 2.92 µM in the assay with HCT-116 colon; 15.6 µM in the assay with IGROV1 ovarian; 0.0491 µM with MDA-MB-435; 10.5 µM with SF-268 CNS; 0.441 µM in the assay with SK-MEL-2 melanoma; 0.28 µM in the assay on SK-MEL-5 melanoma. Further, the results for the TGI in the assay on SR leukemia and with UO-31 renal were 21 µM and 14.2 µM, respectively.

`COc1ncc(-c2ccc3nccc(C#CCCCCC(=O)NO)c3c2)cc1NS(=O)(=O)c1ccc(F)cc1F`: the GI50 in the assay with HCT-116 colon was 0.123 µM; in the assay on IGROV1 ovarian it was under 0.0146 µM; in the assay on MDA-MB-435, 0.132 µM; in the assay with SF-268 CNS, 0.121 µM; with SK-MEL-2 melanoma, 0.106 µM; in the assay on SK-MEL-5 melanoma it was 0.0801 µM. Further, the GI50 in the assay on SR leukemia was 0.146 µM; in the assay with UO-31 renal it was 0.0737 µM. Besides, the TGI was 2.8 µM in the assay with HCT-116 colon; 0.559 µM with IGROV1 ovarian; 4.83 µM in the assay on MDA-MB-435; 3.77 µM in the assay on SF-268 CNS; 1.77 µM with SK-MEL-2 melanoma; 1.34 µM with SK-MEL-5 melanoma. Also, the results for the TGI in the assay on SR leukemia and in the assay on UO-31 renal were 4.24 µM and 4 µM, respectively.

Turning to `Cc1c(Cl)c(C)c(Cl)c(O)c1Cl`, the TGI in the assay on HCT-116 colon was 39.6 µM; in the assay with IGROV1 ovarian, over 100 µM; with MDA-MB-435 it was 60.7 µM; in the assay on SF-268 CNS, over 100 µM; with SK-MEL-2 melanoma it was 30.3 µM; with SK-MEL-5 melanoma, 35.9 µM. In the assay with UO-31 renal, this compound registered a TGI of 42.6 µM.

For the compound `CCCCCCCCCCCCCCCCCC[S+](C)CC` (stereo not drawn), the results for the GI50 in the assay on MDA-MB-435, with SF-268 CNS and in the assay on UO-31 renal were 1.63 µM, 1.18 µM and 1.2 µM, respectively. Besides, the TGI was determined as 3.47 µM with MDA-MB-435, 2.88 µM with SF-268 CNS and 2.62 µM in the assay with UO-31 renal.

Consider `CN1CCN(CCC=C2c3ccccc3Sc3ccc(S(=O)(=O)N(C)C)cc32)CC1`, for which the GI50 in the assay on HCT-116 colon was 3 µM and 3.35 µM; in the assay with IGROV1 ovarian it was 5.13 µM and 8.26 µM; with MDA-MB-435, 1.89 µM and 2.08 µM; with SK-MEL-2 melanoma, 2.37 µM and 2.48 µM; in the assay with SK-MEL-5 melanoma, 1.58 µM; with SR leukemia it was 2.19 µM. Also, in the assay with UO-31 renal, the GI50 was 3.46 µM and 4.23 µM. In addition, the TGI with HCT-116 colon was > 100 µM and 23.8 µM; in the assay on IGROV1 ovarian it was 23.3 µM and 25.7 µM; with MDA-MB-435 it was 4.28 µM and 5.82 µM; in the assay with SK-MEL-2 melanoma, 4.32 µM and 6.09 µM; in the assay on SK-MEL-5 melanoma, 2.95 µM and 3.02 µM; with SR leukemia, 7.74 µM. For the same compound, the TGI with UO-31 renal was 25.1 µM and 21.1 µM.

In the case of `Cc1c(C(=O)c2ccccc2)[n+](=O)c2cc(F)c(F)cc2n1[O-]`, the GI50 was 1.32 µM in the assay with IGROV1 ovarian; 2.2 µM in the assay with MDA-MB-435; 1.93 µM in the assay with SF-268 CNS; 2.03 µM in the assay with SK-MEL-5 melanoma; 0.316 µM with SR leukemia; 2.04 µM with UO-31 renal. Further, the TGI in the assay on IGROV1 ovarian came to 5.33 µM; in the assay on MDA-MB-435 it was 5.43 µM; with SF-268 CNS, 4.12 µM; with SK-MEL-5 melanoma, 4.24 µM; in the assay on SR leukemia it was 5.24 µM; in the assay on UO-31 renal, 4.13 µM.

In the case of `O=C(NN1C(=O)CSC1c1c(Cl)cccc1Cl)C(O)c1ccccc1` (stereo not drawn), the GI50 in the assay with HCT-116 colon is 36.7 µM; in the assay with IGROV1 ovarian it was 40.8 µM; in the assay with MDA-MB-435, 25 µM; in the assay on SF-268 CNS, 60 µM; in the assay on SK-MEL-2 melanoma, 50.5 µM; in the assay with SK-MEL-5 melanoma it was 32.8 µM. For the same compound, the GI50 in the assay with UO-31 renal is 29.3 µM. In addition, the TGI in the assay on HCT-116 colon, in the assay on IGROV1 ovarian, in the assay with MDA-MB-435, with SF-268 CNS, in the assay on SK-MEL-2 melanoma and in the assay with SK-MEL-5 melanoma was over 100 µM each time. For the same compound, in the assay on UO-31 renal, the TGI is over 100 µM.

On to `Nc1n[nH]c2ccc([C@@H]3Nc4ccc5cn[nH]c5c4[C@H]4C5CCC(C5)[C@@H]34)cc12` (stereo partly drawn), for which the GI50 was 0.442 µM in the assay on HCT-116 colon; 0.579 µM with IGROV1 ovarian; 2.59 µM with SF-268 CNS; 0.621 µM in the assay with SK-MEL-2 melanoma; 0.355 µM with SK-MEL-5 melanoma; 0.361 µM with SR leukemia. The GI50 in the assay with UO-31 renal is 1 µM. Further, the TGI in the assay with HCT-116 colon is over 100 µM; in the assay on IGROV1 ovarian, 62.2 µM; in the assay on SF-268 CNS it was over 100 µM; with SK-MEL-2 melanoma, over 100 µM; in the assay on SK-MEL-5 melanoma, 3.45 µM; with SR leukemia, over 100 µM. In the assay on UO-31 renal, this compound yielded a TGI of over 100 µM.

Consider `COc1cc2c(cc1-c1coc3cc(O)ccc3c1=O)OCO2`, for which the TGI was 37.1 µM in the assay with HCT-116 colon; 53.7 µM in the assay with IGROV1 ovarian; over 100 µM in the assay with MDA-MB-435; 43.6 µM in the assay on SF-268 CNS; over 100 µM with SK-MEL-2 melanoma; over 100 µM in the assay on SK-MEL-5 melanoma. The compound further came in with a TGI in the assay on UO-31 renal of 58.4 µM.

In the case of `O=C1c2ccc3c4c(ccc(c24)C(=O)N1CCNCc1ccccc1)C(=O)N(CCNCc1ccccc1)C3=O`, the GI50 in the assay on HCT-116 colon was 1.42 µM; in the assay on IGROV1 ovarian, 1.72 µM; in the assay with SF-268 CNS it was 2.76 µM; in the assay with SK-MEL-2 melanoma, 2.23 µM; in the assay with SK-MEL-5 melanoma it was 1.39 µM. The TGI in the assay with HCT-116 colon was 2.89 µM; with IGROV1 ovarian, 4.27 µM; with SF-268 CNS, 14.7 µM; in the assay with SK-MEL-2 melanoma it was 5.81 µM; in the assay on SK-MEL-5 melanoma, 2.68 µM.

With `COc1cc(N2CCC(N)CC2)ccc1Nc1ncc(Cl)c(-c2c[nH]c3ccccc23)n1`, the GI50 in the assay with HCT-116 colon is 0.422 µM; in the assay on IGROV1 ovarian, 0.405 µM; in the assay on MDA-MB-435 it was 0.266 µM; in the assay on SF-268 CNS it was 0.846 µM; in the assay on SK-MEL-2 melanoma, 0.23 µM; in the assay on SK-MEL-5 melanoma it was 1.49 µM. Further, the GI50 in the assay with UO-31 renal was 0.339 µM. In addition, the TGI in the assay with HCT-116 colon was determined as 1.78 µM; in the assay with IGROV1 ovarian it was 2.23 µM; in the assay with MDA-MB-435, 1.77 µM; with SF-268 CNS, 3.35 µM; with SK-MEL-2 melanoma, 0.982 µM; in the assay on SK-MEL-5 melanoma, 2.84 µM. In the assay with UO-31 renal, the TGI worked out at 2.12 µM.

Regarding `CCN(CC)CC(O)c1cc(-c2ccc(Cl)cc2)nc2c(C)c(Cl)ccc12` (stereo not drawn), the GI50 in the assay on HCT-116 colon was 1.66 µM; with IGROV1 ovarian, 1 µM; in the assay on MDA-MB-435 it was 1.74 µM; with SF-268 CNS, 1.61 µM; with SK-MEL-2 melanoma it was 2.1 µM; in the assay on SK-MEL-5 melanoma, 1.7 µM. For the same compound, the GI50 with UO-31 renal was 0.549 µM. The TGI in the assay on HCT-116 colon is 3.18 µM; in the assay with IGROV1 ovarian, 2.36 µM; in the assay with MDA-MB-435 it was 3.29 µM; with SF-268 CNS it was 3.05 µM; with SK-MEL-2 melanoma, 3.61 µM; in the assay with SK-MEL-5 melanoma, 3.11 µM. The same compound gave a TGI with UO-31 renal of 2.16 µM.

For the compound `CC(=O)N[C@@H](Cc1ccc(OP(=O)(O)O)cc1)C(=O)N[C@H]1CCC(=O)N2CCC[C@@H](C(=O)NC3CCc4ccccc43)N2C1=O` (stereo partly drawn), the GI50 in the assay on HCT-116 colon, in the assay with IGROV1 ovarian, in the assay on MDA-MB-435, in the assay with SF-268 CNS, with SK-MEL-2 melanoma and with SK-MEL-5 melanoma was over 25 µM in each case. Besides, the GI50 in the assay on UO-31 renal is over 25 µM. The TGI with HCT-116 colon, in the assay on IGROV1 ovarian, in the assay on MDA-MB-435, with SF-268 CNS, in the assay with SK-MEL-2 melanoma and in the assay with SK-MEL-5 melanoma was over 25 µM throughout. In the assay on UO-31 renal, this compound yielded a TGI of over 25 µM.

`CCc1ncc(CO)n1Cc1cccc2ccccc12`: the TGI with HCT-116 colon, in the assay with IGROV1 ovarian, in the assay on MDA-MB-435, in the assay with SF-268 CNS, in the assay on SK-MEL-2 melanoma and in the assay on SK-MEL-5 melanoma was over 100 µM in each case. This compound also came in with a TGI in the assay with UO-31 renal of over 100 µM.

For `CC1(C)C(CC(=O)O)CCCC1CC(=O)O` (stereo not drawn), the TGI with HCT-116 colon, with IGROV1 ovarian, with MDA-MB-435, in the assay on SK-MEL-2 melanoma, in the assay on SK-MEL-5 melanoma and in the assay with SR leukemia was over 100 µM each time. In the assay on UO-31 renal, this compound had a TGI of over 100 µM.

As to `CC(C)C1=CC2=C(C(=O)C1=O)C13CCCC(C)(C)C1CC2OC3=O` (stereo not drawn), the TGI in the assay on HCT-116 colon was determined as 33.2 µM; in the assay on IGROV1 ovarian, 32.2 µM; with MDA-MB-435 it was 43.2 µM; with SF-268 CNS it was 55.8 µM; in the assay on SK-MEL-2 melanoma, 47.4 µM; in the assay with SK-MEL-5 melanoma, 55.1 µM. Further, in the assay with UO-31 renal, the TGI came to 40.8 µM.
